Assay results reported in patent publication US12594276B2, “Inhibitors of human immunodeficiency virus replication” (ViiV Healthcare UK (No.5) Limited, priority 2024, dated 2026).

Tested on: recombinant NL4-3 virus (nef section replaced with Renilla luciferase gene) in MT-2 cells
Test: HIV cell culture assay (antiviral activity, luciferase readout)
Format: cell-based
Conditions: Renilla, NL43, MT-2 cells infected for 4-5 days with recombinant NL4-3 Renilla luciferase virus
Method: HIV cell culture assay—MT-2 cells, 293T cells and the proviral DNA clone of NL4-3 virus were obtained from the NIH AIDS Research and Reference Reagent Program. MT-2 cells were propagated in RPMI 1640 media supplemented with 10% heat inactivated fetal bovine serum (FBS), […]. The 293T cells were propagated in DMEM media supplemented with 10% heat inactivated FBS, […]. A recombinant NL4-3 proviral clone, in which a section of the nef gene was replaced with the Renilla luciferase gene, was used to make the reference virus used in these studies. The recombinant virus was prepared through transfection of the recombinant NL4-3 proviral clone into 293T cells using Transit-293 Transfection Reagent from Mirus Bio LLC (Madison, WI). Supernatant was harvested after 2-3 days and the amount of virus present was titered in MT-2 cells using luciferase enzyme activity as a marker by measuring luciferase enzyme activity. Luciferase was quantitated using the EnduRen Live Cell Substrate from Promega (Madison, WI). Antiviral activities of compounds toward the recombinant virus were quantified by measuring luciferase activity in MT-2 cells infected for 4-5 days with the recombinant virus in the presence of serial dilutions of the compound.
The 50% effective concentration (EC50) was calculated by using the exponential form of the median effect equation where (Fa)=1/[1+(ED50/drug conc.)m](Johnson V A, Byington R T. Infectivity Assay. In Techniques in HIV Research. ed. Aldovini A, Walker B D. 71-76. New York: Stockton Press. 1990). Curve fitting and analysis were performed with ActivityBase XE Runner software version 9.1.0.4 using model 203 (ID Business Solutions, LTD, Guildford, UK).

| Structure (SMILES) | EC50 |
| --- | --- |
| CCc1cc(C2CCC(F)(F)CC2)nc2nc([C@H](Cc3cc(F)cc(F)c3)NC(=O)Cn3nc(C(F)(F)F)c4c3C[C@H]3C[C@@H]43)n(-c3ccc(Cl)c4c(NS(C)(=O)=O)nn(CCCOC)c34)c(=O)c12 (relative stereo) [Example 641, N-[(1S)-1-[(3P)-3-[4-chloro-3-methanesulfonamido-1-(3-methoxypropyl)-1H-indazol-7-yl]-7-(4,4-difluorocyclohexyl)-5-ethyl-4-oxo-3H,4H-pyrido[2,3-d]pyrimidin-2-yl]-2-(3,5-difluorophenyl)ethyl]-2-[(2R*,4R*)-9-(trifluoromethyl)-7,8-diazatricyclo[4.3.0.0^2,^4]nona-1(6),8-dien-7-yl]acetamide] | 0.029 nM |
| Cc1cc(C2CCC(F)(F)CC2)nc2nc([C@H](Cc3cc(F)cc(F)c3)NC(=O)Cn3nc(C(F)F)c4c3C[C@@H]3C[C@H]43)n(-c3ccc(Cl)c4c(NS(C)(=O)=O)nn(CCN5CC(C)(C)OC(C)(C)C5)c34)c(=O)c12 (atropisomer, axis not shown; (P)) [Example 611, N-[(1S)-1-[(3P)-3-{4-chloro-3-methanesulfonamido-1-[2-(2,2,6,6-tetramethylmorpholin-4-yl)ethyl]-1H-indazol-7-yl}-7-(4,4-difluorocyclohexyl)-5-methyl-4-oxo-3H,4H-pyrido[2,3-d]pyrimidin-2-yl]-2-(3,5-difluorophenyl)ethyl]-2-[(2S,4S)-9-(difluoromethyl)-7,8-diazatricyclo[4.3.0.0^2,^4]nona-1(6),8-dien-7-yl]acetamide] | 0.025 nM |
| Cc1cc(C2CCC(F)(F)CC2)nc2nc([C@H](Cc3cc(F)cc(F)c3)NC(=O)Cn3nc(C4CC4)c4c3C[C@@H]3C[C@H]43)n(-c3ccc(Cl)c4c(NS(C)(=O)=O)nn(C[C@@H](C)N5CC(C)(C)OC(C)(C)C5)c34)c(=O)c12 (relative stereo) [Example 706, N-[(1S)-1-[(3P)-3-{4-chloro-3-methanesulfonamido-1-[(2R)-2-(2,2,6,6-tetramethylmorpholin-4-yl)propyl]-1H-indazol-7-yl}-7-(4,4-difluorocyclohexyl)-5-methyl-4-oxo-3H,4H-pyrido[2,3-d]pyrimidin-2-yl]-2-(3,5-difluorophenyl)ethyl]-2-[(2R*,4R*)-9-cyclopropyl-7,8-diazatricyclo[4.3.0.0^2,^4]nona-1(6),8-dien-7-yl]acetamide] | 0.015 nM |
| Cc1cc(C2CCC(F)(F)CC2)nc2nc([C@H](Cc3cc(F)cc(F)c3)NC(=O)Cn3nc(C(F)(F)F)c4c3C[C@@H]3C[C@H]43)n(-c3ccc(Cl)c4c(NS(C)(=O)=O)nn(CCN5CC(C)(C)OC(C)(C)C5)c34)c(=O)c12 (atropisomer, axis not shown; (P)) [Example 612, N-[(1S)-1-[(3P)-3-{4-chloro-3-methanesulfonamido-1-[2-(2,2,6,6-tetramethylmorpholin-4-yl)ethyl]-1H-indazol-7-yl}-7-(4,4-difluorocyclohexyl)-5-methyl-4-oxo-3H,4H-pyrido[2,3-d]pyrimidin-2-yl]-2-(3,5-difluorophenyl)ethyl]-2-[(2S,4S)-9-(trifluoromethyl)-7,8-diazatricyclo[4.3.0.0^2,^4]nona-1(6),8-dien-7-yl]acetamide] | 0.028 nM |
| Cc1cc(C2CCC(F)(F)CC2)nc2nc([C@H](Cc3cc(F)cc(F)c3)NC(=O)Cn3nc(C(F)(F)F)c4c3C(F)(F)[C@@H]3C[C@H]43)n(-c3ccc(Cl)c4c(NS(C)(=O)=O)nn(CCN5CC(C)(C)OC(C)(C)C5)c34)c(=O)c12 (atropisomer, axis not shown; (P)) [Example 609, N-[(1S)-1-[(3P)-3-{4-chloro-3-methanesulfonamido-1-[2-(2,2,6,6-tetramethylmorpholin-4-yl)ethyl]-1H-indazol-7-yl}-7-(4,4-difluorocyclohexyl)-5-methyl-4-oxo-3H,4H-pyrido[2,3-d]pyrimidin-2-yl]-2-(3,5-difluorophenyl)ethyl]-2-[(2S,4R)-5,5-difluoro-9-(trifluoromethyl)-7,8-diazatricyclo[4.3.0.0^2,^4]nona-1(6),8-dien-7-yl]acetamide] | 0.033 nM |
| Cc1cc(C2(F)CCC(F)(F)CC2)nc2nc([C@H](Cc3cc(F)cc(F)c3)NC(=O)Cn3nc(C(F)F)c4c3C(F)(F)[C@@H]3C[C@H]43)n(-c3ccc(Cl)c4c(NS(C)(=O)=O)nn(C[C@@H](C)N5CC(C)(C)OC(C)(C)C5)c34)c(=O)c12 (atropisomer, axis not shown; (P)) [Example 707, N-[(1S)-1-[(3P)-3-{4-chloro-3-methanesulfonamido-1-[(2R)-2-(2,2,6,6-tetramethylmorpholin-4-yl)propyl]-1H-indazol-7-yl}-5-methyl-4-oxo-7-(1,4,4-trifluorocyclohexyl)-3H,4H-pyrido[2,3-d]pyrimidin-2-yl]-2-(3,5-difluorophenyl)ethyl]-2-[(2S,4R)-9-(difluoromethyl)-5,5-difluoro-7,8-diazatricyclo[4.3.0.0^2,^4]nona-1(6),8-dien-7-yl]acetamide] | 0.038 nM |
| Cc1cc(C2CCC(F)(F)CC2)nc2nc([C@H](Cc3cc(F)cc(F)c3)NC(=O)Cn3nc(C(F)F)c4c3C(F)(F)[C@@H]3C[C@H]43)n(-c3ccc(Cl)c4c(NS(C)(=O)=O)nn(C[C@@H](C)N5CC(C)(C)OC(C)(C)C5)c34)c(=O)c12 (atropisomer, axis not shown; (P)) [Example 705, N-[(1S)-1-[(3P)-3-{4-chloro-3-methanesulfonamido-1-[(2R)-2-(2,2,6,6-tetramethylmorpholin-4-yl)propyl]-1H-indazol-7-yl}-7-(4,4-difluorocyclohexyl)-5-methyl-4-oxo-3H,4H-pyrido[2,3-d]pyrimidin-2-yl]-2-(3,5-difluorophenyl)ethyl]-2-[(2S,4R)-9-(difluoromethyl)-5,5-difluoro-7,8-diazatricyclo[4.3.0.0^2,^4]nona-1(6),8-dien-7-yl]acetamide] | 0.021 nM |
| COCCCn1nc(NS(C)(=O)=O)c2c(Cl)ccc(-n3c([C@H](Cc4cc(F)cc(F)c4)NC(=O)Cn4nc(C(F)F)c5c4C(F)(F)[C@@H]4C[C@H]54)nc4nc(C5(CCN6C[C@H](F)C[C@H](F)C6)CCC(F)(F)CC5)cc(C)c4c3=O)c21 (atropisomer, axis not shown; (P)) [Example 615] | 0.027 nM |
| Cc1cc(C2CCC(F)(F)CC2)nc2nc([C@H](Cc3cc(F)cc(F)c3)NC(=O)Cn3nc([C@H]4CC4(F)F)c4c3C[C@H]3C[C@@H]43)n(-c3ccc(Cl)c4c(NS(C)(=O)=O)nn(CCN5CC(C)(C)OC(C)(C)C5)c34)c(=O)c12 (atropisomer, axis not shown; (P)) [Example 613, N-[(1S)-1-[(3P)-3-{4-chloro-3-methanesulfonamido-1-[2-(2,2,6,6-tetramethylmorpholin-4-yl)ethyl]-1H-indazol-7-yl}-7-(4,4-difluorocyclohexyl)-5-methyl-4-oxo-3H,4H-pyrido[2,3-d]pyrimidin-2-yl]-2-(3,5-difluorophenyl)ethyl]-2-[(2R,4R)-9-[(1R)-2,2-difluorocyclopropyl]-7,8-diazatricyclo[4.3.0.0^2,^4]nona-1(6),8-dien-7-yl]acetamide] | 0.015 nM |
| CC1(C)CN(CCn2nc(NS(C)(=O)=O)c3c(Cl)ccc(-n4c([C@H](Cc5cc(F)cc(F)c5)NC(=O)Cn5nc(C(F)F)c6c5C(F)(F)[C@@H]5C[C@H]65)nc5nc(C6CCC(F)(F)CC6)cc(CN6CC(F)(F)C6)c5c4=O)c32)CC(C)(C)O1 (atropisomer, axis not shown; (P)) [Example 621, N-[(1S)-1-[(3P)-3-{4-chloro-3-methanesulfonamido-1-[2-(2,2,6,6-tetramethylmorpholin-4-yl)ethyl]-1H-indazol-7-yl}-5-[(3,3-difluoroazetidin-1-yl)methyl]-7-(4,4-difluorocyclohexyl)-4-oxo-3H,4H-pyrido[2,3-d]pyrimidin-2-yl]-2-(3,5-difluorophenyl)ethyl]-2-[(2S,4R)-9-(difluoromethyl)-5,5-difluoro-7,8-diazatricyclo[4.3.0.0^2,4]nona-1(6),8-dien-7-yl]acetamide] | 0.005 nM |
| Cc1cc(C2(F)CCC(F)(F)CC2)nc2nc([C@H](Cc3cc(F)cc(F)c3)NC(=O)Cn3nc(C(F)F)c4c3C(F)(F)[C@@H]3C[C@H]43)n(-c3ccc(Cl)c4c(NS(C)(=O)=O)nn([C@H](C)C(=O)N5C[C@H](F)C[C@H](F)C5)c34)c(=O)c12 (atropisomer, axis not shown; (P)) [Example 755, N-[(1S)-1-[(3P)-3-{4-chloro-1-[(2R)-1-[(3R,5S)-3,5-difluoropiperidin-1-yl]-1-oxopropan-2-yl]-3-methanesulfonamido-1H-indazol-7-yl}-5-methyl-4-oxo-7-(1,4,4-trifluorocyclohexyl)-3H,4H-pyrido[2,3-d]pyrimidin-2-yl]-2-(3,5-difluorophenyl)ethyl]-2-[(2S,4R)-9-(difluoromethyl)-5,5-difluoro-7,8-diazatricyclo[4.3.0.0^2,^4]nona-1(6),8-dien-7-yl]acetamide] | 0.027 nM |

Tested on: not listed separately
Test: Compound cytotoxicity, XTT-based colorimetric assay
Format: cell-based
Conditions: human; uninfected MT2 cells, day 4, XTT; read-out: CC50
Method: Compound cytotoxicity and the corresponding CC50 values were determined using the same protocol as described in the antiviral assay except that uninfected cells were used. Cytotoxicity was assessed on day 4 in uninfected MT2 cells by using an XTT (2,3-bis[2-Methoxy-4-nitro-5-sulfophenyl]-2H-tetrazolium-5-carboxyanilide inner salt)-based colorimetric assay (Sigma-Aldrich, St Louis, Mo).

| Structure (SMILES) | CC50 at 4 days |
| --- | --- |
| CCc1cc(C2CCC(F)(F)CC2)nc2nc([C@H](Cc3cc(F)cc(F)c3)NC(=O)Cn3nc(C(F)(F)F)c4c3C[C@H]3C[C@@H]43)n(-c3ccc(Cl)c4c(NS(C)(=O)=O)nn(CCCOC)c34)c(=O)c12 (relative stereo) [Example 641, N-[(1S)-1-[(3P)-3-[4-chloro-3-methanesulfonamido-1-(3-methoxypropyl)-1H-indazol-7-yl]-7-(4,4-difluorocyclohexyl)-5-ethyl-4-oxo-3H,4H-pyrido[2,3-d]pyrimidin-2-yl]-2-(3,5-difluorophenyl)ethyl]-2-[(2R*,4R*)-9-(trifluoromethyl)-7,8-diazatricyclo[4.3.0.0^2,^4]nona-1(6),8-dien-7-yl]acetamide] | > 50 nM |
